Measured values: ChEMBL document CHEMBL5727158, “Rho-associated protein kinase inhibitor, pharmaceutical composition comprising the same, as well as preparation method and use thereof” (2019)

Target: Rho-associated protein kinase 2 (Homo sapiens, UniProt O75116)
Assay: Biological Assay: The kinase IC50 was determined by a commercialized CISBIO kinase detection kit, HTRF KinEASE-STK S2 kit (62ST2PEC). ROCK2 (01-119) employed in the reaction was purchased from Carna Biosciences.Before the assay, the following working solutions as needed were formulated with corresponding reagents according to the instruction of the kinase detection kit: 1×kinase buffer, 5×STK-52 substrate working solution (1.5 μM) and 5×ATP working solution (1.5 μM), 5×ROCK2 kinase working solution, 4×Streptavidin-XL665 working solution, and 4×STK-Ab-Cryptate 2 detection solution. Then the assay was performed according to the following procedure.A solution of a compound at a concentration of 10000 nM was prepared with the 1×kinase buffer containing 2.5% DMSO. Gradient dilution of the solution of the compound was performed with the kinase buffer containing DMSO, so as to obtain solutions of a test compound at 9 different concentrations. In addition to wells of test compounds, a positive well (containing all the reagents except the compound) and a negative well (containing all the reagents except the test compound and kinase) were set. Except for the control wells (positive and negative wells), a solution of a test compound (4 μL) was added to each of the reaction wells, and a solution of 2.5% DMSO was added to the control wells. […]

Sequence of Rho-associated protein kinase 2 (O75116 whole entry): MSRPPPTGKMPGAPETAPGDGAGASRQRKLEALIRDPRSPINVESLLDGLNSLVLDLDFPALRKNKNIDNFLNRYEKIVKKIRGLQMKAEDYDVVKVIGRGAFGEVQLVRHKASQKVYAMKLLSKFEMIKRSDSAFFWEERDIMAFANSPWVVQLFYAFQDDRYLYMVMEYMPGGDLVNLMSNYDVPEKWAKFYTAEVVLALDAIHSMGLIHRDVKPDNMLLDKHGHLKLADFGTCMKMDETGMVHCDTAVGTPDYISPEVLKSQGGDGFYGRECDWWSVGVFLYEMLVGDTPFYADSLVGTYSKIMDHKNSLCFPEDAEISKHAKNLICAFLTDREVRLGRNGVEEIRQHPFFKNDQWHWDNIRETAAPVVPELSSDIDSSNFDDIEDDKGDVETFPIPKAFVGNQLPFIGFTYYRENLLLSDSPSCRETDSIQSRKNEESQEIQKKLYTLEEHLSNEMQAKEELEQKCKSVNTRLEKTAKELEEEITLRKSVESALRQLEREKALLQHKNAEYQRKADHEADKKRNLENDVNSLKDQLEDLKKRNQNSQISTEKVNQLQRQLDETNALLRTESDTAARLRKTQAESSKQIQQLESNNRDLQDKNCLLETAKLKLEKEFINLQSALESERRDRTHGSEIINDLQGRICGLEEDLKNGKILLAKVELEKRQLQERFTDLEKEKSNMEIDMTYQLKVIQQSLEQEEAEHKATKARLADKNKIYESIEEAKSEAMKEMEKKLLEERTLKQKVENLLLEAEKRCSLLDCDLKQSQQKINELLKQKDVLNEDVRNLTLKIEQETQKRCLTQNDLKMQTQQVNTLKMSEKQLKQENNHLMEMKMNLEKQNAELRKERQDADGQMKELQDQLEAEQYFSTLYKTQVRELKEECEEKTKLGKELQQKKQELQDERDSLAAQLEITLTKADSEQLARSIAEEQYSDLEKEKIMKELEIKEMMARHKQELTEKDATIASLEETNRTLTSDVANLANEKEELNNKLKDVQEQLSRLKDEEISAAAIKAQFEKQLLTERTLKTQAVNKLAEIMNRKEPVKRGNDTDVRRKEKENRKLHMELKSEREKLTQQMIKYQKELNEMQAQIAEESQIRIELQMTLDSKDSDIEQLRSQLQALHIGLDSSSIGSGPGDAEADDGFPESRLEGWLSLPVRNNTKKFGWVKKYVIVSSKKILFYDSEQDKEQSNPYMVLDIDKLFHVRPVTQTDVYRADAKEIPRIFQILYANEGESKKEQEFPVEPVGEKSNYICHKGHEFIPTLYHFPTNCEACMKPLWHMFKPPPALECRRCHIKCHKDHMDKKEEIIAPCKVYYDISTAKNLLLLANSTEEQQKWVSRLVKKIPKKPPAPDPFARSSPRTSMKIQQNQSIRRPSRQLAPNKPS

- IC50: 71 nM
SMILES: O=C(Nc1ccc(-c2cn[nH]c2)cc1)c1cc2ccc(-c3nccc(Nc4ccc5[nH]ncc5c4)n3)cc2[nH]1
